Experiment: mn = molality of the nth substance listed, in mol/kg
Settings: 298.15 K, 101 kPa, Liquid; for speed of sound: Sing-around technique in a fixed-path interferometer; for mass density: Vibrating tube method

COC(=O)CCC(C)=O [methyl levulinate] + O
Settings	mass density [kg/m3]	speed of sound [m/s]
m1 = 0.0322	997.582	1499.2
m1 = 0.0375	997.646	1499.4
m1 = 0.0399	997.675	1499.7
m1 = 0.042	997.701	1499.7
m1 = 0.0537	997.774	1500
m1 = 0.0724	998.063	1500.9
m1 = 0.0737	998.08	1501
m1 = 0.1127	998.543	1503.2
m1 = 0.1571	999.079	1505.7
m1 = 0.1949	999.523	1507.7
m1 = 0.2491	1000.15	1510.6
m1 = 0.3297	1001.08	1514.6
m1 = 0.3905	1001.76	1517.5
m1 = 0.4721	1002.66	1521.3
m1 = 0.5562	1003.58	1525.1
m1 = 0.6293	1004.35	1527.8
m1 = 0.7107	1005.19	1530.9
m1 = 0.7782	1005.87	1533.4
m1 = 0.9597	1007.31	1539.2
m1 = 1.161	1008.76	1544.8

CCOC(=O)CCC(C)=O [ethyl levulinate] + O
Settings	mass density [kg/m3]	speed of sound [m/s]
m1 = 0.0358	997.518	1499.2
m1 = 0.0404	997.561	1499.6
m1 = 0.0431	997.587	1499.8
m1 = 0.0492	997.643	1500.2
m1 = 0.0555	997.699	1500.7
m1 = 0.0696	997.825	1501.6
m1 = 0.0752	997.876	1502
m1 = 0.0921	998.027	1503.1
m1 = 0.1048	998.143	1504
m1 = 0.148	998.527	1507.1
m1 = 0.2329	999.277	1512.1
m1 = 0.2893	999.76	1515.5
m1 = 0.3426	1000.21	1518.5
m1 = 0.4292	1000.93	1523.1
m1 = 0.4826	1001.36	1525.7
m1 = 0.5834	1002.14	1530.3
m1 = 0.7128	1003.11	1535.5
m1 = 0.8299	1003.94	1539.5
m1 = 1.037	1005.27	1545

CCOC(=O)C(C)O (stereo not drawn) [DL-ethyl lactate] + O
Settings	mass density [kg/m3]	speed of sound [m/s]
m1 = 0.0348	997.552	1498.7
m1 = 0.0378	997.579	1499
m1 = 0.0445	997.674	1499.6
m1 = 0.0513	997.748	1500
m1 = 0.063	997.869	1500.5
m1 = 0.0719	997.967	1501.1
m1 = 0.0895	998.152	1502.2
m1 = 0.1026	998.294	1503
m1 = 0.1207	998.489	1504
m1 = 0.1439	998.732	1505.6
m1 = 0.1856	999.184	1508.6
m1 = 0.2723	1000.1	1514
m1 = 0.5249	1002.7	1526
m1 = 0.6911	1004.35	1533.5
m1 = 0.8467	1005.83	1539.6
m1 = 1.02	1007.41	1545.3
m1 = 1.188	1008.87	1551.3
m1 = 1.359	1010.23	1556.1
m1 = 1.683	1012.78	1563.9
m1 = 2.058	1015.37	1572.5
m1 = 2.41	1017.49	1579
m1 = 2.725	1019.27	1585.2
m1 = 3.226	1021.64	1593.3
m1 = 3.731	1023.63	1601.1
m1 = 4.237	1025.37	1607.5

CCCCOC(=O)C(C)O (stereo not given) [butyl 2-hydroxypropanoate] + O
Settings	mass density [kg/m3]	speed of sound [m/s]
m1 = 0.0219	997.335	1498.8
m1 = 0.0262	997.377	1499.4
m1 = 0.0328	997.422	1499.9
m1 = 0.0399	997.472	1500.3
m1 = 0.0413	997.482	1500.5
m1 = 0.0444	997.503	1500.8
m1 = 0.0632	997.633	1502.3
m1 = 0.0659	997.652	1502.6
m1 = 0.0775	997.733	1503.7
m1 = 0.0915	997.826	1504.9
m1 = 0.1058	997.928	1506.1
m1 = 0.1167	998.001	1507
m1 = 0.1331	998.116	1508.4
m1 = 0.1551	998.265	1510.2
m1 = 0.1798	998.437	1512.2
m1 = 0.1979	998.576	1514
m1 = 0.2171	998.689	1515.5
m1 = 0.235	998.813	1516.7
m1 = 0.2647	999.004	1518.4
m1 = 0.2785	999.098	1519.4

CCCCOC(=O)CCC(C)=O [butyl levulinate] + O
Settings	mass density [kg/m3]	speed of sound [m/s]
m1 = 0.0029	997.066	1497.3
m1 = 0.0037	997.071	1497.5
m1 = 0.005	997.078	1497.6
m1 = 0.0055	997.08	1497.6
m1 = 0.0059	997.081	1497.7
m1 = 0.0074	997.088	1497.9
m1 = 0.0083	997.093	1497.9
m1 = 0.0088	997.096	1497.9
m1 = 0.011	997.107	1498.2
m1 = 0.0128	997.114	1498.4
m1 = 0.0135	997.123	1498.5
m1 = 0.0142	997.124	1498.5
m1 = 0.0208	997.158	1499.1
m1 = 0.0219	997.163	1499.4
m1 = 0.0257	997.183	1499.7
m1 = 0.0303	997.197	1500
m1 = 0.0312	997.209	1500.1
m1 = 0.0357	997.23	1500.6
m1 = 0.0466	997.273	1501.4
m1 = 0.0522	997.303	1501.8
m1 = 0.0625	997.333	1502.5

From the NIST ThermoML archive (doi:10.1016/j.jct.2013.06.020)
